Tests used:
[1] = tested on: DEFB103 (Human β-defensin 3) mRNA expression; test: DEFB103 (human β-defensin 3) mRNA expression in hTCEpi cells, quantitative PCR; type: cell-based; conditions: hTCEpi corneal epithelial cells, treated individually, 24 hours
Procedure: Telomerase immortalized human corneal epithelial cells (hTCEpi cells, passage 40-50) were grown in 6-well plates to 80-90% confluence. Cells were treated with andrographolide, oridonin, isoliquiritigenin (Selleck Chem) individually for 24 hours, at concentrations previously determined to have no effect on cellular viability based on cell morphology, MTT assay and RNA yield. Vehicle control type was based on manufacturers' diluent recommendation and concentration was equivalent to the diluent concentration in the highest treatment (andrographolide and oridonin: DMSO, isoliquiritigenin: ethanol). After 24 hours, media was aspirated from each well and washed with sterile PBS. Total RNA was extracted (GeneJet) and quantified (NanoDrop). Approximately 50 ng of total RNA from each sample was reverse transcribed and quantitative PCR was performed using […] for DEFB103 (ThermoFisher), and GAPDH specific aptamers were used as a control. Expression of DEFB103 was calculated using the 2^-ddCt method. A one-way ANOVA was performed to determine statistical significance with a post-hoc test to determine individual differences.
Separate time course experiments were performed as described above, where data points were taken at 2, 6, 12, and 24 hours.

[2] = tested on: human β-defensin 3 (hBD3) peptide; test: hBD3 peptide expression in hTCEpi cells, ELISA of supernatant; type: cell-based; conditions: increasing concentrations, 48 hours
Procedure: hTCEpi cells were seeded into a 6-well plate coated with FNC material and allowed to grow to 80% confluence. The cells were subsequently treated with increasing concentrations of andrographolide (10, 25, 50, 75, 100 μM), oridonin (1, 2, 5, 10, 15 μM), isoliquiritigenin (5, 10, 15, 25, 50 μM) for 48 hours, and a negative control (vehicle: DMSO or EtOH). After treatment, the supernatant was collected and 100 μl was used to quantify hBD3 peptide concentration (Defensin 3, beta (human) ELISA Kit, Phoenix Pharmaceuticals Inc) and performed in duplicate for each treatment. An hBD3 peptide standard curve was generated from the ELISA kit reagents. The concentration of each experimental well was determined from the linear regression equation generated from the absorbance values of the hBD3 standards. […] It is important to note that the majority of the AMP research fails to detect peptide concentrations from both in vitro and in vivo experiments despite observing upregulation at the mRNA level and the ability to augment antimicrobial activity of cells in either context.

## oridonin
[1]
  increase of human β-defensin 3 mRNA expression over vehicle control alone: 4 fold
[2]
  hBD3 peptide expression: below the limit of detection

## O=C(/C=C/c1ccc(O)cc1)c1ccc(O)cc1O [isoliquiritigenin]
[1]
  increase of human β-defensin 3 mRNA expression over vehicle control alone: 9-10 fold
[2]
  hBD3 peptide expression: below the limit of detection

## C=C1CC[C@@H]2[C@](C)(CO)[C@H](O)CC[C@@]2(C)[C@@H]1C/C=C1/C(=O)OC[C@H]1O [andrographolide]
[1]
  increase of human β-defensin 3 mRNA expression over vehicle control alone: 360 fold
[2]
  hBD3 peptide expression: markedly upregulated in a dose-dependent manner
